melting point | SMILES
120 to 121 °C | CC(C)(C)OC(=O)Nc1ncccc1Br
128 to 130 °C | O=C(O)CCCc1ccc(NS(=O)(=O)c2ccccc2)cc1
176 to 177 °C | COc1cc2c(cc1OC)C(C=NO)c1ccccc1CC2 (stereo not given)
178 to 180 °C | O=C(O)COc1ccc2c(-c3ccccc3F)noc2c1I
179 to 182 °C | CCOC(=O)c1cnc(N2CCn3ccnc3C2)nc1NCc1ccc(OC)c(Cl)c1
249 to 252 °C | CCOc1c(Nc2cccc(C3C(C(=O)OC)=C(C)NC(C)=C3C(=O)OC)c2)c(=O)c1=O
38 to 43 °C | CCc1nc(N)nc2c1nc(NC)n2C1CC(N=[N+]=[N-])C(CO)O1 (stereo not given)
90 to 98 °C | COc1ccc(CN(CCCNc2ncc(Cc3ccc(C)nc3)c(=O)[nH]2)c2ccccn2)cc1
152 to 155 °C | O=S(c1ncccn1)c1cccc2cccnc12 (stereo not given)
107 to 108 °C | C#CCOCc1c(C)nc2c(OCc3ccccc3OC)cccn12
> 330 °C | O=C1NC(=O)c2c1c(-c1cc([N+](=O)[O-])cc([N+](=O)[O-])c1)cc1[nH]c3ccc(O)cc3c21
109 to 112 °C | CC(C)(C)OC(=O)NCC1(O)CCN(Cc2ccccc2)CC1
123 to 124 °C | O=C(NCc1ccccn1)c1cc(C(F)(F)F)cc(C(F)(F)F)c1
44 to 45.5 °C | C=Cc1ccc(CSCCO)cc1
105 °C | CCOC(=O)C1=C(/C=C/N(C)C)C(CC)(C(=O)N(CC)CC)OC1=O (stereo not given)
103 to 104 °C | Cc1ccc(C(=O)C2(O)CCCCC2)cc1C
95 to 96 °C | Cc1ccc(S(=O)(=O)OCC(O)(CC(C)c2ccccc2)C(F)(F)F)cc1 (stereo not given)
85 to 86.5 °C | COc1ccc(S(C)(=O)=O)cn1
168 °C | Cc1cc(Cl)ccc1OCC(=O)N1Cc2ccc(C(=O)NCc3cccnc3)n2Cc2ccccc21
236 to 237 °C | O=C1Nc2ccc(-c3ccc(Cl)cc3)cc2C1=NO
82 to 85 °C | COc1ccc(-c2nc(-c3cccs3)c[nH]2)cc1Cl
175 to 177 °C | COC(=O)CCCc1n[nH]c(=O)c2cc(OC)ccc12
198 to 199 °C | Cc1nnc(-c2ccc3occ(-c4ccc(S(C)(=O)=O)cc4Cl)c3c2)o1
79 to 81 °C | O=Cc1ccccc1Oc1ccc(C(F)(F)F)cc1[N+](=O)[O-]
236 to 238 °C | CN(C)Cc1cnc2cc(NC(=O)c3ccc(-c4ccc(Cl)cc4)cc3)ccc2c1

melting point | SMILES
72 to 73 °C | CCOC(=O)Nc1ccc(Br)cc1F
285 to 287 °C | CN(Cc1cccc2c1CN(C1CCC(=O)NC1=O)C2=O)C(=O)Nc1cc(Cl)cc(Cl)c1 (stereo not given)
> 300 °C | Cc1nc2c(C)cc(Oc3cnc(N)nc3N)c(C(C)C)c2o1
159 to 161 °C | COC(=O)c1cccc2nc(SCCN3CCN(CC(=O)Nc4c(C(C)C)cccc4C(C)C)CC3)oc12
53 to 54 °C | CC1(c2ccccc2)SC(=Nc2ccc(Cl)cc2)N(Nc2ccccc2)C1=O (stereo not given)
35 to 37 °C | Cc1cc(Br)cnc1CCCCN
133 to 138 °C | O=C(Cc1ccccc1)NC(SC(=O)c1ccccc1)C(=O)O (stereo not given)
173 to 175 °C | CCOc1ccc2[nH]c3c(c2c1)C[C@@](C)(C(=O)OC)N[C@@H]3c1cccc(O)c1 (racemic)
299 to 301 °C | Cn1c(=O)c2nc(-c3ccc(/C=C/C(=O)O)cc3)[nH]c2n(C)c1=O
210 to 215 °C | NC(=O)NN=Cc1c(O)c(O)cc2ccccc12
118 to 120 °C | CCOC(=O)C1=CC(NC(=NC(=O)OC(C)(C)C)NC(=O)OC(C)(C)C)C(NC(C)=O)C(C(O)C2COC(C)(C)O2)O1 (stereo not given)
118 to 119 °C | CCCOc1ccccc1-c1nc2nc(CC)ncc2c(=O)[nH]1
92.5 to 94 °C | CCOC(=O)c1sc2ccc(Cl)cc2c1C
146 to 147 °C | N#Cc1cc(C(=O)CC(O)(c2cc(Cl)cc(Cl)c2)C(F)(F)F)ccc1F (stereo not given)
130 to 132 °C | Cc1ccc(C2C(=O)Oc3c2cc(C(C)(C)C)cc3C(C)(C)C)cc1C (stereo not given)
106 °C | CON=C(C(=O)O)c1cccs1
120 °C | CC1C(=O)N(CCO)C(=S)N1c1ccc(Oc2ccccc2)cc1 (stereo not given)
236 to 238 °C | CSc1nc(C)n(CC(=O)O)c(=O)c1C#N
110 to 111 °C | CCOC(=O)c1c(NCCCC(=O)c2ccccc2)c2c(Cl)cc(Cl)cc2n1C(=O)OC(C)(C)C
83.5 to 84.5 °C | Fc1ccc(-c2cnn(CCC#Cc3ccccn3)n2)cc1
152 to 154 °C | CC(C)(C#N)C(O)(CCc1ccc(F)cc1)Cn1cncn1 (stereo not given)
88 to 90 °C | Cc1c(CC(=O)N(C)C)oc2ccc(F)cc12
146 to 149 °C | COc1ccsc1-c1nsc2ccc(N3C(=O)C4=C(CCCC4)C3=O)cc12
58 to 60 °C | CCOc1ccccc1OCCN(CCCC(OCC)c1ccc(F)cc1)C(C)=O (stereo not given)
152 to 153 °C | CCO[C@@H](Cc1ccc(OCCc2nc(C(C)(C)C)oc2C)c2ccsc12)C(=O)O

melting point | SMILES
113 to 116 °C | CC1(C)CC(=O)C(C(=S)Nc2ccc(Cl)c(Cl)c2)C(=O)C1
65 to 72 °C | CCc1cc(C#N)cc(C)c1CC(=O)OC
120 to 121 °C | COC(=O)C(O)C(NC(=O)OCc1ccccc1)c1ccccc1 (stereo not given)
160 to 162 °C | CCOC(=O)C1C(=O)NC(=O)C(CCN(C)C)(c2cccc(OC)c2)C1CC (stereo not given)
117 to 118 °C | O=C(c1cc2cc(OCCNC[C@H](O)COc3ccccc3)ccc2o1)N1CCCC1
126 to 128 °C | Oc1cccc2c1CCC(O)C2 (stereo not given)
93 to 99 °C | CCn1c(Nc2ccc(C)cc2)nnc1[C@@H](C)NS(=O)(=O)c1ccc(Cl)c(Cl)c1
56 °C | CC(C=[N+]([O-])C(C)(C)C)c1ccccc1 (stereo not given)
151 to 154 °C | Fc1cccc(F)c1COc1cccnc1NC(=S)Nc1ccc(Cl)cc1
244 to 247 °C | O=C(O)c1cnn(-c2ccc(F)cc2)c1
163 °C | c1ccc(-c2cnc3cc4ccccc4cc3n2)cc1
232 to 234 °C | Cc1cc(NS(=O)(=O)c2nc3nc(Cl)cc(Cl)n3n2)ccc1Br
138 to 140 °C | COc1c(Cl)c(OC)c2cnoc2c1Cl
117 to 119 °C | CC(C)CC(NC(=O)CCc1ccccc1)C(=O)N[C@@H](Cc1ccccc1)C(=O)CSCc1ccco1 (stereo not given in full)
135 °C | CC(C)Nc1cccnc1N1CCN(C(=O)c2ccc(C(=O)NC[C@H](C)O)cc2)CC1
228 to 233 °C | CC(C)c1c(C(=O)Nc2ccccc2)c(-c2ccccc2)c(-c2ccc(F)cc2)n1CCC(O)CC(O)CC(=O)N(c1ccccc1)c1ccccc1 (stereo not given)
71 to 73 °C | CCCCCCCCCCCCCCCC(=O)OCC(O)COC(=O)CCCCCCCCCCCCCCC
161 to 162 °C | COc1cc(N)c(Cl)cc1C(=O)NCC1CNCCO1 (stereo not given)
265 to 267 °C | COc1ccc(-c2cc(C)c(=O)[nH]n2)cc1
82.5 to 84.5 °C | O=[N+]([O-])c1ccc(CCCNCCO)cc1
122 to 123 °C | CCCCOc1nc(N)nc2c1ncn2C1C=CC(CO)C1 (stereo not given)
132 to 136 °C | CC(C)n1nc(-c2nc(-n3cccc3)c(N)nc2-c2ccccc2)ccc1=O
72 to 74 °C | N#C/C=C\c1ccccc1C(=O)Cl
230 °C | CC(C)[C@H](NC(=O)CN)c1nc2c(C(F)(F)F)cccc2c(O)c1C(=O)Nc1nccs1
168 to 171 °C | Cc1cc(N2CCN(c3c(C)c(C)c4c(c3C)CC(C)(C)O4)CC2)ccc1Cl

melting point | SMILES
64 to 65 °C | COc1c(F)cc(CCCn2nnnc2S)cc1F
160 °C | CC(C)OC(=O)N1Cc2c(-c3ccc(F)cc3)ncn2-c2ccccc21
82.5 to 84.5 °C | CC(=O)c1ccc(-c2ccc(Br)cc2)c(Br)c1
207 to 212 °C | Cc1cc(C2N(c3ccccc3)CCN2c2ccccc2)c(O)cc1N(C)C
281 to 285 °C | Nc1ncc(-c2cc(N3CCOCC3)nc(-n3c(C(F)F)nc4ccccc43)n2)cn1
> 250 °C | Nc1nc(S(N)=O)c2[nH]cnc2n1 (stereo not given)
242 to 249 °C | Nc1nc2ccc(S(=O)(=O)n3c(CCC(=O)O)cc4cc(Cl)ccc43)cc2o1
140 to 142 °C | O=C(O)c1c(OCc2ccccc2)c2ccccc2n1-c1ccccc1
224 to 227 °C | Fc1cccc(Nc2nc(OCC3CCCCC3)c3[nH]cnc3n2)c1
75 to 77 °C | CNCc1cccc2c1ccn2S(=O)(=O)c1ccccc1
176 to 189 °C | Cc1cc(NC(=O)NC(=O)c2ccccc2Cl)nc(C)c1-c1ccccc1
243 to 245 °C | COc1cc2c(Nc3ccc4cn[nH]c4c3)c(C#N)cnc2c(OC)c1OC
210 °C | COc1ccc(-c2cc(-c3ccc(F)cc3)ccc2C(=O)O)cc1OC
126 to 127 °C | CN(CCOc1ccc(CCCC2OC(=O)NC2=O)cc1)c1ccccn1 (stereo not given)
125 °C | CCCCc1ccc(OC)c(-c2csc(NC(=O)c3ccc(C(=O)N4CCC(N5CCC(NS(C)(=O)=O)C5)CC4)cc3)n2)c1 (stereo not given)
180 to 182 °C | CC(C)(C)C(NC(=O)c1ccc(Cl)cc1)NC(=NC#N)NCc1ccccc1Cl (stereo not given)
216 to 217 °C | CCOc1cc(O)cc2c1C(=O)N(COC(=O)c1c(Cl)cccc1Cl)S2(=O)=O
90 to 94 °C | CCCN(CCC)c1c([N+](=O)[O-])cc(S(=O)(=O)N(C)C(=O)OC)cc1[N+](=O)[O-]
234 to 237 °C | COc1ccc(C(=O)Nc2ccc(C(C)(C)CNC(C)=O)c(-c3cccnc3)c2)cc1OC
224 °C | Cc1ccc(N2C(=O)C(O)=C(C(=O)c3ccc(OC(F)(F)F)cc3)C2c2ccc(Cn3cncn3)cc2)nn1 (stereo not given)
156 to 158 °C | Cc1ccc(CS(=O)c2c(O)cc(C)oc2=O)cc1 (stereo not given)
179 °C | CC(C)[C@H](NC(=O)OC(C)(C)C)C(=O)NC1CCC(Nc2cccc3c2C(=O)c2ccccc2C3=O)CC1 (stereo not given in full)

SMILES | melting point
CC(C)Cn1cc(C(=O)Nc2nccs2)c2ccc(Cl)cc21 | 200 to 202 °C
O=C(NC1N=C(c2ccccc2F)c2ccccc2-n2cnnc21)c1cc2ccccc2[nH]1 (stereo not given) | 291 °C
CNC(=O)Oc1ccc2[nH]cc(CCCN3CCN(c4ncncc4OC)CC3)c2c1 | 120 to 122 °C

Reference: a melting point compilation (Tetko et al.; mined from patent text by program, amines drawn as free bases though some values may be those of a salt)
